Test results as given in publication PMC8869333, “Alpha-Glucosidase and Alpha-Amylase Inhibitory Activities, Molecular Docking, and Antioxidant Capacities of Plectranthus ecklonii Constituents” (Antioxidants, 2022).

Experiments:
[1] = Ferric-ion reducing antioxidant power (FRAP) assay; conditions: ascorbic acid equivalents; stock solution 1 mg/mL
Procedure: The FRAP assay was carried out in accordance with the method described previously. In a 96-well plate, 10 μL of the stock solution (1 mg/mL w/v) of the isolated compounds (1–3) was mixed with 300 μL of FRAP reagent. The FRAP reagent was prepared by mixing (10:1:1, v/v/v) of acetate buffer (300 mM, pH 3.6), tripyridyl triazine (TPTZ) (10 mM in 40 mM HCl), and FeCl3.6H2O (20 mM). Incubation commenced at room temperature for 30 min, and the plate was read at a wavelength of 593 nm in a Multiskan spectrum plate reader (Thermo Fisher Scientific). L-Ascorbic (Sigma-Aldrich, Cape Town, South Africa) was used as a standard, with concentrations varying between 0 and 1000 μM. Further dilutions were carried out with the samples that were highly concentrated, and such dilution factors were recorded and used for calculations of the affected samples. The results are expressed as μM ascorbic acid equivalents per milligram dry weight (μM AAE/g) of the test samples.

[2] = Oxygen radical absorbance capacity (ORAC) assay; conditions: Trolox equivalents; stock solution 1 mg/mL
Procedure: ORAC assay was conducted according to the previous method with slight modifications. The method measured the antioxidant scavenging capacity of thermal decomposition generated by peroxyl radical of 2,2-azobis (2-amino-propane) dihydrochloride (AAPH) as peroxyradical (ORACROO^.) generator. The loss of fluorescence of fluorescein (probe) was an indication of the extent of its oxidation through reaction with the peroxyl radical. The protective effect of an antioxidant was measured by assessing the fluorescence area under the curve (AUC) plot relative to that of blank in which no antioxidant was present. The analyzer was programmed to record the fluorescence of fluorescein every 2 min after AAPH was added. The fluorescein solution and sample were added in the wells of an illuminated 96-well plate, and 12 μL of each sample in a stock solution of 1 mg/mL was combined with 138 μL of a fluorescein working solution, followed by the addition of 50 μL of 150 mg of AAPH prepared in situ in 6 mL phosphate buffer. Absorbance was measured with a Fluoroskan spectrum plate reader with the excitation wavelength set as 485 nm and the emission wavelength at 530 nm. A calibration curve was used, using a Trolox stock solution of concentration in the range of 83–417 μM (R^2 = 0.9514). The ORAC values were calculated using a regression equation (Y = a + bX + Cx^2) between Trolox concentration (Y in μM) and the net area under the fluorescence decay curve (X). ORAC values are expressed as μMTE/mg of a test sample. Samples without perfect curve were further diluted, and the dilution factors were used for the calculation of such samples.

[3] = Trolox equivalent absorbance capacity (TEAC) assay; conditions: Trolox equivalents; stock solution 1 mg/mL
Procedure: The TEAC assay was carried out in accordance with the method described previously. The stock solutions, which contained 7 mM of ABTS and 140 mM of K2S2O8, were prepared and kept at −2 °C. The working solution was then prepared by adding 88 μL of K2S2O8 solution to 5 mL of ABTS solution. The two solutions were mixed and allowed to react for 24 h at room temperature in the dark. Trolox was used as a standard, with concentrations ranging between 0 and 500 μM. After 24 h, the ABTS mix solution was diluted with ethanol to read a start-up absorbance (control) of approximately 2.0 (±0.1). The stock solution (1 mg/mL) of a methanol extract and purified compounds (25 μL) were allowed to react with 300 μL of ABTS in the dark at room temperature for 30 min. The absorbance was read at 734 nm at 25 °C in the plate reader. The results are expressed as μM Trolox equivalents per milligram dry weight (μM/TE/g) of the test samples.

[4] = cited from earlier work
[5] = target: T1, alpha-glucosidase (Saccharomyces cerevisiae, UniProt P53341); test: Alpha-glucosidase inhibitory activity (pNPG substrate, absorbance 405 nm); assay type: biochemical
T1 construct: purchased Sigma-Aldrich
Procedure: The organic solvents used in this study were supplied by Merck, Cape Town, South Africa. The NMR spectra were carried out on an Avance 400 MHz spectrometer (Bruker, Rheinstetten, Germany) using deuterated chloroform. Preparative HPLC was utilized for the purification of compounds using HPLC-grade methanol and distilled water.
The reaction was stopped by adding 50 μL of sodium carbonate Na2CO3 (0.1 M). […] Each experiment was repeated three times.

T1 sequence (P53341 whole entry): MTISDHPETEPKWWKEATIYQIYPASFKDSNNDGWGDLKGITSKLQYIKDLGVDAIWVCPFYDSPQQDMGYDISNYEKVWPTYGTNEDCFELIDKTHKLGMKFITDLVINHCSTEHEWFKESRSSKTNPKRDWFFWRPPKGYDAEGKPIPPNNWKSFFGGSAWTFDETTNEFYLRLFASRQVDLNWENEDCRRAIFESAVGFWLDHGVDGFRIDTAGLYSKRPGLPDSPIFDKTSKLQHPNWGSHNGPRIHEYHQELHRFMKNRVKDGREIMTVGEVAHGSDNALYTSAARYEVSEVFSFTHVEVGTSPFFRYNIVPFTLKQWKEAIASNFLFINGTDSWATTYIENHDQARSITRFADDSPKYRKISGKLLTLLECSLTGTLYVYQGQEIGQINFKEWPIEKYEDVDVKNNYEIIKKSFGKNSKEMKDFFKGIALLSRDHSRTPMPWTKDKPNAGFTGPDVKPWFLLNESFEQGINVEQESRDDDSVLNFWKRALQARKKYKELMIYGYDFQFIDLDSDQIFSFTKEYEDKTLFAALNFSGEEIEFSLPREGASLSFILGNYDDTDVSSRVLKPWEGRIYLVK

Molecule	FRAP [1] [µM AAE/g]	ORAC [2] [µM TE/g]	TEAC [3] [µM TE/g]	IC50 ([4]; read-out: DPPH radical scavenging IC50) [µM]	IC50 [5] [µM]	EC50 ([4]; read-out: DPPH radical scavenging EC50) [µM]
parvifloron D [Compound 1]	1043.9 ± 2.6	3942.9 ± 7.1	470.3 ± 2.2	1300 ± 100		
O=C(O[C@@H]1Cc2c(O)cc(O)cc2O[C@@H]1c1cc(O)c(O)c(O)c1)c1cc(O)c(O)c(O)c1 [EGCG, epigallocatechin gallate, reference compound]	7524.1 ± 4.9	3976.82 ± 3.8	4146.4 ± 19.8			
COc1cc(C(=O)OC2CC(C)(C)C3=CC=C4C=C(C(C)C)C(=O)C(O)=C4C3(C)C2)ccc1O (centres unmarked) [Compound 3, parvifloron G]	1455.4 ± 2.0		3526.1 ± 0.6		88.9	
parvifloron F [Compound 2]	1155.5 ± 2.3	1726.1 ± 2.6	1069.3 ± 2.4			131
